In the supplement of paper PMC3974653:
Counter-ions that a name gives are not always drawn.

test system: MTT (mouse pheochromocytoma); assay: IC50 of cell viability (ATP content); settings: (24 or 48 h)
In short: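 After overnight culture at 37°C, 5% CO2 in white 1536-well plates, MTT mouse pheochromocytoma cells were given 23 nl of library compound in DMSO by pintool across 8 concentrations, spanning final 0.5 nM to 46 µM. Following 24 or 48 hrs, CellTiter-Glo luminescence was read after 15 minutes and normalised against positive-control (100%) and DMSO (0%) wells. A four-parameter logistic model provided the IC50.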

Question: `CC[C@@H]1[C@@H]2C[C@H]3[C@H]4N(C)c5ccccc5[C@@]45C[C@H]([C@H]2[C@H]5O)[N@@]3[C@H]1O` [Ajmaline] was tested. Which “IC50 of cell viability” value did it give?
Answer: > 46 µM

Question: How did the “IC50 of cell viability” value turn out when `C=CCN1C(=O)C(CC(C)C)NC1=S` (stereo not given) [Albutoin] was run?
Answer: > 46 µM

Question: How did the “IC50 of cell viability” value turn out when `C=CCOc1ccc(CC(=O)O)cc1Cl` [Alclofenac] was run?
Answer: > 46 µM

Question: How did the “IC50 of cell viability” value turn out when `CCC(=O)OCC(=O)[C@@]1(OC(=O)CC)[C@H](C)C[C@@H]2[C@@H]3[C@H](Cl)C\C4=C\C(=O)\C=C/[C@@]4(C)[C@H]3[C@@H](O)C[C@@]12C` [Alclometasone dipropionate] was run?
Answer: > 46 µM

Question: With `C=CC[N@@H+]1/C(=C/CO)[C@@H]2C[C@H]3[C@H]1CC[C@]31c3ccccc3N3/C=C4/[C@@H]5C[C@@H]6[C@H](CC[C@@]67c6ccccc6N(/C=C\2[C@H]31)[C@@H]47)[N@@H+](CC=C)/C5=C\CO` [Alcuronium chloride] as the compound, how does the “IC50 of cell viability” value read?
Answer: > 46 µM

Question: With `NCCCC(O)(P(=O)(O)O)P(=O)(O)O` [Alendronate sodium] as the compound, how does the “IC50 of cell viability” value read?
Answer: > 46 µM

Question: For `CC(=O)OCC(=O)[C@@H]1CC[C@@H]2[C@H]3CC[C@H]4C[C@@H](O)CC[C@]4(C)[C@@H]3C(=O)C[C@]21C` [Alfadolone acetate], which “IC50 of cell viability” value is on record?
Answer: > 46 µM

Question: Which “IC50 of cell viability” value does the source give for `COc1cc2nc(N(C)CCCNC(=O)[C@H]3CCCO3)nc(N)c2cc1OC` [Alfuzosin hydrochloride] here?
Answer: > 46 µM

Question: How did the “IC50 of cell viability” value turn out when `C=CCc1cc(OC)c(O)c(C(=O)NCCO)c1` [Alibendol] was run?
Answer: > 46 µM

Question: Which “IC50 of cell viability” value does the source give for `C=CCN(C1=NCCN1)c1c(Cl)cccc1Cl` [Alinidine] here?
Answer: > 46 µM

Question: `COCCCOc1cc(C[C@@H](C[C@H](N)[C@@H](O)C[C@H](C(=O)NCC(C)(C)C(N)=O)C(C)C)C(C)C)ccc1OC` [Aliskiren] was tested. Which “IC50 of cell viability” value did it give?
Answer: > 46 µM

Question: Which “IC50 of cell viability” value does the source give for `NC(=O)N[C@H]1NC(=O)NC1=O` [Allantoin] here?
Answer: > 46 µM

Question: For `CC(C)=CC1C(C(=O)OC\2CC(=O)\C(=C2C)CC=C)C1(C)C` (stereo not given) [Allethrin], which “IC50 of cell viability” value is on record?
Answer: > 46 µM

Question: How did the “IC50 of cell viability” value turn out when `COC(=O)C1C(OC(=O)c2ccccc2)CC2CCC1N2C` (stereo not given) [Allococaine] was run?
Answer: > 46 µM

Question: For `Oc1ncnc2[nH]ncc12` [Allopurinol], which “IC50 of cell viability” value is on record?
Answer: > 46 µM

Question: How did the “IC50 of cell viability” value turn out when `C=CCN=C=S` [Allyl isothiocyanate] was run?
Answer: > 46 µM

Question: For `C=CC[C@]1(O)CCC2C3CCC4=CCCCC4C3CCC21C` (stereo not given in full) [Allylestrenol], which “IC50 of cell viability” value is on record?
Answer: > 46 µM

Question: For `C=CCNC(N)=S` [Allylthiourea], which “IC50 of cell viability” value is on record?
Answer: > 46 µM

Question: Which “IC50 of cell viability” value does the source give for `Cc1cn([C@H]2CC(F)[C@@H](CO)O2)c(=O)[nH]c1=O` (stereo not given in full) [Alovudine] here?
Answer: > 46 µM

Question: For `Cc1c(C)c2c(c(C)c1O)CC[C@@](C)(CCC[C@H](C)CCC[C@H](C)CCCC(C)C)O2` [Alpha-Vitamin E], which “IC50 of cell viability” value is on record?
Answer: > 46 µM

Question: How did the “IC50 of cell viability” value turn out when `CCCN(CCC)C(=O)Cc1c(-c2ccc(Cl)cc2)nc2ccc(Cl)cn12` [Alpidem] was run?
Answer: > 46 µM

Question: With `CCCCC[C@H](O)/C=C\[C@@H]1[C@H](O)CC(=O)[C@@H]1CCCCCCC(=O)O` [Alprostadil] as the compound, how does the “IC50 of cell viability” value read?
Answer: > 46 µM

Question: For `O=C(O)CN1C(=O)c2cccc3cccc(c23)C1=O` [Alrestatin], which “IC50 of cell viability” value is on record?
Answer: > 46 µM

Question: `O=C(c1ccc(F)cc1)C1CCN(CCn2c(=S)[nH]c3ccccc3c2=O)CC1` [Altanserin hydrochloride] was tested. Which “IC50 of cell viability” value did it give?
Answer: > 46 µM

Question: How did the “IC50 of cell viability” value turn out when `C=CCC1(O)CCC2C3CCC4=CC(=O)CCC4=C3C=CC21C` (stereo not given) [Altrenogest] was run?
Answer: > 46 µM

Question: For `CN(C)c1nc(N(C)C)nc(N(C)C)n1` [Altretamine], which “IC50 of cell viability” value is on record?
Answer: > 46 µM

Question: For `CCCCCCCCCCCCCCCCCC(=O)[O][Al]([OH])[OH]` [Aluminum monostearate], which “IC50 of cell viability” value is on record?
Answer: > 46 µM

Question: With `CC(=O)[O][Al]([OH])[O]C(C)=O` [Aluminum subacetate] as the compound, how does the “IC50 of cell viability” value read?
Answer: > 46 µM

Question: How did the “IC50 of cell viability” value turn out when `CCN(CCCc1ccccc1)CCCc1ccccc1.O=C(O)CC(O)(CC(=O)O)C(=O)O` [Alverine citrate salt] was run?
Answer: > 46 µM

Question: Which “IC50 of cell viability” value does the source give for `Nc1ncnc(Nc2ccccc2)n1` [Amanozine] here?
Answer: > 46 µM

Question: With `CC1(C)SC2[C@@H](/N=C/N3CCCCCC3)C(=O)N2[C@H]1C(=O)O` (stereo not given in full) [Amdinocillin] as the compound, how does the “IC50 of cell viability” value read?
Answer: > 46 µM

Question: For `Nc1c(CC(=O)[O-])cccc1C(=O)c1ccccc1` [Amfenac Sodium], which “IC50 of cell viability” value is on record?
Answer: > 46 µM

Question: `NCCCNCCSP(=O)(O)O` [Amifostine] was tested. Which “IC50 of cell viability” value did it give?
Answer: > 46 µM

Question: Which “IC50 of cell viability” value does the source give for `NCC[C@H](O)C(=O)N[C@@H]1C[C@H](N)[C@@H](O[C@H]2O[C@H](CN)[C@@H](O)[C@H](O)[C@H]2O)[C@H](O)[C@H]1O[C@H]1O[C@H](CO)[C@@H](O)[C@H](N)[C@H]1O` [Amikacin sulfate] here?
Answer: > 46 µM

Question: For `O=C(O)CCCCCCNC1c2ccccc2CCc2ccccc21` [Amineptine], which “IC50 of cell viability” value is on record?
Answer: > 46 µM
